Here are results for 4 compounds from patent publication US20120244568A1, “LABEL-FREE RIGID CELL ASSAY METHOD” (priority 2011, published 2012).

Like-named read-outs stand apart in the source and are kept apart here.

Holding throughout (format): cell-based
In assay [1] the test system is Saccharomyces cerevisiae S288C yeast cells. The assay can be described thus: label-free DRCA multi-wavelength SPR yeast cell assay (response to a substance).
Assay [2] has the same test system. The assay is described as above. Conditions: 10 micromolar; for effect on yeast cell growth: 4,000 cells per well, pre-incubated 60 minutes; for effect on yeast cell growth / effect on yeast cell growth measured at short penetration depth: FIG. 4; for effect on yeast cell growth compared with the other modulators: consistent at three different penetration depths, versus fluconazole and ketaconazole; for effect on yeast cell growth measured at short penetration depth: 660 nm laser source. As to the method: Yeast cells were cultured on an YPD agar plate at 28° C. for 16 hours and kept at 4° C. until just prior to use. From the agar plate, yeast cells were collected and seeded into YPD liquid medium and cultured at 28° C. for 8 hours. The cells were then diluted with its liquid medium to obtain a cell density of about 4,000 cells/mL as a starting point for cell inhibition studies. For the detection of yeast cells, the cells were collected at the late logarithm phase and collected by centrifugation at 10,000 g for 10 minutes. Cells were further washed to remove debris and/or high index material such as glucose.
A DRCA™ system equipped with three lasers having wavelengths of, for example, 660 nm, 980 nm, and 1480 nm, was selected for the study. The system allows for simultaneously measuring a cell at three different wavelengths. The output measures the angular change of the surface plasmon resonance (SPR). The angular change indicates a mass change within the defined sensing region. The depth of the sensing region depends on the wavelength of the selected illuminating laser as listed, for example, in Table 1.
A user-assembled assay plate was first assembled with a gold coated glass slide and an 80-well holey plate (cut from a 384-well holey plate). Yeast cells were seeded into the wells with or without a compound and incubated in the instrument for approximately 60 minutes at 22° C. The cell responses were then measured and data were collected according to the description in the aforementioned U.S. Ser. No. 12/956,464.
A procedure for accomplishing a label-free rigid cell assay response to a substance in accord with the present disclosure can include, for example: • 1. clean and assemble an 80-well holey plate on top of a gold chip; • 2. sterile the assembled chip by exposure to high intensity UV light for around 5 minutes; • 3. grow yeast cells until the middle or late logarithm stage, preferably the former for an active inoculum; • 4. turn on the DRCA optical system to warm-up the lasers for, e.g., 1 hour; • 5. collect yeast cell by centrifugation at, e.g., 10,000 g for 10 minutes; • 6. wash the cells with at least 5× fold volume of the pellet using a saline buffer, such as phosphate saline buffer; • 7. vortex the cell solution using, for example, a bench top vortex mixer; • 8. collect yeast cells by centrifugation at e.g. 10,000 g for 10 minutes; • 9. repeat steps 6 to 8 for approximately three (3) times to remove high refractive index materials, such as, sugar residues, cell debris, or like materials, and mixtures thereof; • 10. count yeast cell number using, e.g., a hemocytometer • 11. prepare assay buffer with or without a substance (compound/bio-molecule); • 12. load assay buffer with or without a substance (compound/bio-molecule) to each well of the cell chamber and let it equilibrate for, e.g., 60 minutes; • 13. record the baselines for, e.g., 15 minutes; • 14. add a small amount of yeast cells, such as 4000 cells/mL to each well; • 15. monitor the yeast cell response, for example, to an added substance, with a plurality of wavelengths and depths; • 16. record the data; and • 17. analyze the data by calculating the difference between the end points and baselines.
Four modulator compounds were used to study of their effect on yeast cells. A user assembled (i.e., a virtual) assay plate was seeded with 4,000 cells per well. A modulator was added to a test well at 10 micromolar and then pre-incubated for 60 minutes. Each modulator was tested in three replicates. The well without a modulator was a positive control. […] However, the difference between the modulators and controls was more substantial when measured at the longest penetration depth using the 1480 nm laser source. […] Accordingly, the disclosed method can be useful for drug screening, drug development, and like applications.
Time course of a modulator effect. The effect of an amphotericin compound on yeast cells was monitored in real time under ambient condition. […]

Assay [3] shares this test system. Briefly: yeast cell count by hemocytometer of DRCA assay samples. Conditions: with amphotericin treatment; FIG. 8; untreated sample about 12,000,000 cells. The text has this:
(§1) The samples from the aforementioned DRCA assay were further analyzed with a spectrophotometer (Agilent Technologies, Wilmington, Del.) and hemocytometer (Thermo Fisher Scientific, Hudson, N.H.). […] With amphotericin treatment, the cell number was about zero, compared to about 12,000,000 cells in the untreated sample, see FIG. 8 (yeast cell count by hemocytometer) for amphotericin (80) and no amphotericin (82) at each of three wavelengths.

Assay [4] shares this test system. The assay can be described thus: turbidometric determination with a visible light spectrophotometer (absorbance OD580) of DRCA assay samples. Conditions: 10 micromolar, FIG. 7.
Source text: FIG. 7 charts absorbance readings of a conventional turbidometric determination using a visible light spectrophotometer, for cultured yeast cells without amphotericin (left; amphotericin at 0 micromolar) and contacted with amphotericin (right; amphotericin at 10 micromolar). Turbidity can be used as an indirect measure of cell growth. Using a standard curve generated with serial dilutions of known number cells, one can estimate cell density in a turbid cell culture.
as §1

Regarding `C[C@@H]1[C@H](O)[C@@H](C)/C=C/C=C/C=C/C=C/C=C/C=C/C=C/[C@H](O[C@@H]2O[C@H](C)[C@@H](O)[C@H](N)[C@@H]2O)C[C@@H]2O[C@](O)(C[C@@H](O)C[C@@H](O)[C@H](O)CC[C@@H](O)C[C@@H](O)CC(=O)O[C@H]1C)C[C@H](O)[C@H]2C(=O)O` [amphotericin, Amphotericin], the IC50 in assay [1] (read-out: IC50 (inhibition curve, yeast cells), 660 nm wavelength, about 4000 cells/well, 3,000 nM serially diluted at 3 fold, R^2=0.9072) was 374 nM; in assay [1] (read-out: IC50 (inhibition curve, yeast cells), 980 nm wavelength, about 4000 cells/well, 3,000 nM serially diluted at 3 fold, R^2=0.9486), 271 nM; in assay [1] (read-out: IC50 (inhibition curve, yeast cells), 1480 nm wavelength, about 4000 cells/well, 3,000 nM serially diluted at 3 fold, R^2=0.9817), 158 nM. Besides, in assay [2], the “effect on yeast cell growth” value is given as “had an effect on yeast cell growth”. Moreover, in assay [2] (about 16 hours, any given penetration depth (660, 980, 1480 nm), FIG. 5), the “change in response over time (time course)” value was “almost no change in response”. For the same compound, the “effect on yeast cell growth compared with the other modulators” value in assay [2] was “more noticeable effect”. Further, the cell number entry in assay [3] is “about zero”. Further, in assay [4], the “cell growth by turbidity” value was “cell growth was inhibited”. In addition, the OD580 absorbance reading entry in assay [4] (untreated sample about 12) is recorded as “about zero”.

Regarding `Clc1ccccc1C(c1ccccc1)(c1ccccc1)n1ccnc1` [clotrimazole], in assay [2], the “effect on yeast cell growth” value is “had an effect on yeast cell growth” and the “effect on yeast cell growth compared with the other modulators” value is recorded as “more noticeable effect”.

`OC(Cn1cncn1)(Cn1cncn1)c1ccc(F)cc1F` [fluconazole]: in assay [2], the “effect on yeast cell growth measured at short penetration depth” value was “not detectable” and the “effect on yeast cell growth” value was “had an effect on yeast cell growth”.

As to `CC(=O)N1CCN(c2ccc(OCC3COC(Cn4ccnc4)(c4ccc(Cl)cc4Cl)O3)cc2)CC1` (stereo not drawn) [ketaconazole], in assay [2], the “effect on yeast cell growth measured at short penetration depth” value is “not detectable” and the “effect on yeast cell growth” value was “had an effect on yeast cell growth”.
